Data as given in patent US9518065B2, “IRAK inhibitors and uses thereof” (NIMBUS IRIS, INC., priority 2013, dated 2016).

Biological target: T1, IRAK4 (Homo sapiens, UniProt Q9NWZ3)
T1 construct: purchased CARNA Bioscience 09-145
T1 sequence (Q9NWZ3 1-460): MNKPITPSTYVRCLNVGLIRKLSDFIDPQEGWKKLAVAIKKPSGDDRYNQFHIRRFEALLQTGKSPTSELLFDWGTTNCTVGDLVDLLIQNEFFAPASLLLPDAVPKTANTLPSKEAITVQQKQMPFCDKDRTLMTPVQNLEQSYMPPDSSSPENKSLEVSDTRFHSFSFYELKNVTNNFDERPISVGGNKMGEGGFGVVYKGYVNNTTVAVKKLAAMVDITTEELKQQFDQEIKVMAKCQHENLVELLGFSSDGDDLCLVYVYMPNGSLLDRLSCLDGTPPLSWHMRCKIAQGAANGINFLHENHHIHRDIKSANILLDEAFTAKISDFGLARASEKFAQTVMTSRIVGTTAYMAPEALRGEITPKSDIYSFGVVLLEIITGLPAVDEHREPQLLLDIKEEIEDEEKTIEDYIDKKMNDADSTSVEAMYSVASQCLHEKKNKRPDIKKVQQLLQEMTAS
Assay: IRAK-4 activity inhibition assay (Caliper)
Assay type: biochemical
Conditions: 3.5 nM IRAK4, 37 μM ATP, 1.5 μM Peptide 8
Outline: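 Caliper mobility-shift assay: 3.5 nM IRAK4 preincubated 10 min with compound (10-point series, duplicates), then 1.5 μM peptide 8 and 37 μM ATP added in HEPES pH 7.5 with Mg2+/Mn2+ and DTT, 40 min at 28°C before EDTA stop. Percent inhibition from substrate conversion relative to DMSO and no-enzyme controls.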

| IC50 [nM] | Compound |
| --- | --- |
| ≤ 1000 | CCc1nc2c(N[C@H]3CC[C@H](N4CCOCC4)CC3)nc(Nc3cnn(C4CCOCC4)c3)nc2s1 [Compound I-9, 2-ethyl-5-N-[1-(oxan-4-yl)-1H-pyrazol-4-yl]-7-N—[trans-4-(morpholin-4-yl)cyclohexyl]-[1,3]thiazolo[5,4-d]pyrimidine-5,7-diamine] |
| ≤ 1000 | 2-methyl-N5-(1-methyl-1H-pyrazol-4-yl)-N7-((1r,4r)-4-morpholinocyclohexyl)thiazolo[5,4-d]pyrimidine-5,7-diamine [Compound I-24] |
| ≤ 1000 | CCc1nc2c(N[C@H]3CC[C@H](N4CCOCC4)CC3)nc(Nc3cnn(C)c3)nc2s1 [Compound I-7, 2-ethyl-N5-(1-methyl-1H-pyrazol-4-yl)-N7-((1r,4r)-4-morpholinocyclohexyl)-thiazolo[5,4-d]pyrimidine-5,7-diamine] |
